Measurements from publication PMC10056899, “Neuroprotective and Antiherpetic Properties of Polyphenolic Compounds from Maackia amurensis Heartwood” (Molecules, 2023).

What was measured:
HSV-1 = test: Anti-HSV-1 activity, HSV-1 DNA level by real-time PCR (RT-PCR); assay type: cell-based, HSV-1 strain L2; conditions: 5 µg/mL, simultaneous treatment, 48 h; for 1, 4 and Maxar given on average
Procedure: The anti-HSV-1 activity of the polyphenolic compounds from M. amurensis was also studied using the real-time PCR (RT-PCR) technique (Figure 5 and Table S69, Supplementary Data). Vero cells were simultaneously infected with 100 TCD50/mL HSV-1 and treated with polyphenolic compounds 1–6 at concentrations of 50 and 5 μg/mL. After 48 h of cell incubation, viral DNA was extracted from the supernatants, and the relative level of HSV-1 DNA was determined using RT-PCR. The effect of stilbenes on the relative level of viral DNA was assessed by 2^−ΔCt method and reported as fold reduction relative to virus control, to which the value of 1.0 was assigned.
For the viral DNA extraction assay, Vero cells grown in 96-well plates were infected with HSV-1 and simultaneously treated with polyphenolic compounds and incubated at 37 °C in a CO2-incubator for 48 h. After incubation, the culture media and the cells scraped from the plate were transferred to centrifuge tubes. The cell debris was removed by centrifugation at 300× g for 10 min. Then, supernatant was collected and kept at −20 °C. The HSV-1 DNA was extracted from supernatant by using the AmpliSens® DNA-sorb-AM (K1-12-100-CE) nucleic acid extraction kit (Moscow, Russia) according to the manufacturer′s instructions. […]
The DNA HSV was detected in the obtained DNA samples using the AmpliSens® HSV I, II-FRT-100F PCR kit (Moscow, Russia) on a real-time PCR instrument Rotor-Gene Q (Qiagen, Hilden, Nordrhein-Westfalen, Germany) according to the manufacturer′s instructions. […] In the real-time PCR, the amplified product is detected with the use of fluorescent dyes. […] The threshold cycle number, Ct, was measured as the PCR cycle, where the amount of amplified target reached the threshold value. The reduction in the HSV-1 DNA levels in culture supernatants was assessed by the change in the threshold cycle (ΔCt) (Equation (4)):(4) ΔCt=Cttv−Ctcv where: • Cttv is the average Ct value for the infected samples after treatment with polyphenolic compounds; • Ctcv corresponds to the average Ct value for the virus control. […]

[1] = tested on: PQ-treated Neuro-2a cells; test: Mitochondrial membrane potential in PQ-treated cells (TMRM); assay type: cell-based, murine; conditions: 10 μM
Procedure: […] Then, we added PQ (500 μM) and kept the cell suspension in a CO2-incubator for 1 h. Cells incubated without PQ and stilbenes and with PQ only were used as positive and negative control, respectively. We added the tetramethylrhodamine methyl (TMRM) (Sigma-Aldrich, St. Louis, MO, USA) solution (500 nM) to each well and kept the cells for 30 min in a CO2-incubator at 37 °C. The intensity of fluorescence was measured with a PHERAstar […] reader (BMG Labtech, Ortenberg, Germany) at λex = 540 nm and λem = 590 nm. We processed the data by MARS Data Analysis v. 3.01R2 (BMG Labtech, Ortenberg, Germany) and presented the results as percentages of the positive control value.

SMILES	Reduction of relative level of HSV-1 DNA relative to virus control (HSV-1)	Increase of mitochondrial membrane potential compared to PQ-treated cells [1]
COc1ccc([C@@H]2COc3cc(O)ccc3[C@H]2c2c(O)cc(O)cc2/C=C/c2ccc(O)c(O)c2)c(O)c1 [Compound 1]	~1.3 log10	–
Oc1ccc(/C=C/c2cc(O)cc3c2[C@H](c2cc(O)cc(O)c2)[C@@H](c2ccc(O)c(O)c2)O3)cc1 [Compound 4, scirpusin A]	~1.3 log10	26%
